“Also recorded” adds a separate entry of the source.
How the values were obtained:
X16 BTICs = details: X16 BTICs; cited from earlier work
X10 BTICs = details: X10 BTICs; cited from earlier work
[1] = test system: LN229 TMZ-resistant glioma cell line; assay: IncuCyte live cell imaging proliferation assay; format: cell-based; details: for sensitization to TMZ: BRI 1 μM combined with 100 μM TMZ; for effect on cell growth: BRI alone (1 μM)
Procedure: (§1) FIG. 2A is a graph showing relative growth of temozolomide (TMZ)-resistant glioma cells (LN229 cells) alone (control); after treatment with 100 micromolar (μM) TMZ; after treatment with a Brahma-related gene-1 bromodomain inhibitor (BRI), PFI-3 (1 μM); or after treatment with both TMZ and PFI-3 (combined).
as §1, with “2B” for “2A”, “IV-073” for “PFI-3”
as §1, with “2C” for “2A”, “LN229 Temozolomide” for “temozolomide”, “cells” for “cells (LN229 cells)”, “IV-077” for “PFI-3”
as §1, with “2D” for “2A”, “LN229 Temozolomide” for “temozolomide”, “cells” for “cells (LN229 cells)”, “IV-085” for “PFI-3”
To determine whether PFI-3 (also called YH-IV-081) and its analogs (referred to herein as “PAs”) enhanced TMZ sensitivity IncuCyte live cell imaging proliferation assays (high throughput system) were performed with the LN229 TMZ-resistant glioma cell line.

bromodomain of BRG1 = biological target: T1, bromodomain of BRG1 (Homo sapiens, UniProt P51532); assay: thermal shift assay of the BRG1 bromodomain in MT330 GBM cells; format: binding; details: 44.5° C. to 55.6° C.; PFI-3 30 μM, IV-073 20 μM, two hours; compared to DMSO
T1 construct: The assay involved the use of the bromodomain of BRG1 in MT330 GBM cells; expressed in transfected cells; host or cells: MT330 GBM cells
Procedure: FIG. 3 is a series of immunoblot images showing the effects of Brahma-related gene-1 bromodomain inhibitors (BRIs) on the stability of the bromodomain of Brahma-related gene-1 in a thermal assay shift of the bromodomain in glioblastoma cells over a temperature range from 44.5 degrees Celsius (° C.) to 55.6° C. Cells were treated with (middle) PFI-3 (30 micromolar (μM)) for two hours or (right), a PFI-3 analog of the presently disclosed subject matter (IV-073) (20 μM) for two hours. For comparison, control cells treated with dimethyl sulfoxide (DMSO) are shown at […].
To further study the activity of the presently disclosed PFI-3 analogs, a thermal shift assay was employed. The assay involved the use of the bromodomain of BRG1 in MT330 GBM cells at temperatures ranging from 44.5° C. to 55.6° C.

[2] = biological target: T2, GFP-tagged bromodomain of BRG1 (GFP-BRG1 BRD) (Homo sapiens, UniProt P51532); assay: nuclear localization of fluorescently tagged BRG1 bromodomain in MT330 GBM cells; format: cell-based; details: PFI-3 10 or 30 μM; IV-073 5, 10 or 30 μM; compared to DMSO
T2 construct: a fluorescently tagged bromodomain of BRG1 expressed in MT330 GBM cells; expressed in transfected cells; host or cells: MT330 GBM cells
Text: FIG. 4 is a series of fluorescence microscopy images showing the effects of Brahma-related gene-1 bromodomain inhibitors (BRIs) on the nuclear localization of a green fluorescent protein (GFP)-tagged bromodomain of Brahma-related gene-1 (GFP-BRG1 BRD).
The effects of PFI-3 and its analogs on the nuclear localization of a fluorescently tagged bromodomain of BRG1 expressed in MT330 GBM cells was studied. In the control samples, the fluorescent bromodomain is localized to the nucleus. However, an inhibitor displaces it from the nucleus and the fluorescence signal markedly decreases because it is degraded in the cytoplasm.

X16 BTIC = X16 BTIC mouse flank xenografts; format: in vivo, mice; details: combined with TMZ; for tumor growth: 2 weeks post-treatment, compared with PFI-3 and TMZ, BRI 0.5 μg/mouse, TMZ 0.25 mg/mouse IP alternate days
Procedure: FIG. 1F is a graph showing the effect of temozolomide (TMZ) on the tumorigenicity of control (black portion of bars) and Brahma-related gene-1-knock-down (BRG1-KD) (grey portion of bars) brain-tumor initiating cells (BTICs) after injection of 10^6 tumor cells into the flanks of immunodeficient mice. Live animal imaging preformed at weekly intervals. After confirming tumor initiation by live animal imaging, mice were treated with TMZ by interperitoneal (IP) injection (10 milligrams per kilogram (mg/kg) on alternate days). The reduction in tumor volume was calculated at 1 week (left) and 2 weeks (right) post-treatment. *p≤0.05.
FIG. 5 is a graph showing the effect of Brahma-related gene-1 bromodomain inhibitors (BRIs), PFI-3 and the PFI-3 analogs (PAs) IV-073, IV-077, and IV-085, on the anticancer activity of temozolomide (TMZ) on brain-tumor initiating-cell (BTIC) tumor growth. BTICs (10^6 cells) from X16 glioblastoma were injected into the flanks of immunodeficient mice. After confirming tumor initiation by live animal imaging, mice were treated with PFI-3 or a PA (0.5 microgram per mouse (μg/mouse)) and TMZ (0.25 mg/mouse) by intrarperitoneal (IP) injection on alternate days. The reduction in tumor volume was calculated at 2 weeks post-treatment.
BRG1 loss sensitizes BTICs to TMZ in vitro and in vivo: Although the alkylating agent TMZ is front-line chemotherapy in the treatment of GBM, a significant clinical problem is intrinsic or adaptive resistance to TMZ.^63 To evaluate TMZ sensitivity, GBM6 or X16 BTICs were treated with 300 μM or 500 μM TMZ, and cell proliferation was determined. […] Since BRG1 has been implicated in DNA double-strand break repair,^65-67 it was hypothesized that BRG1 loss in BTICs would sensitize BTICs to TMZ. […] To determine whether BRG1-KD sensitized BTICs to TMZ in vivo, animal studies were conducted with control (scrambled shRNA) and BRG1-KD X16 BTICs injected into the flanks of NSG mice. After tumor initiation was confirmed by live animal imaging, mice were treated with TMZ. […] Thus, despite X16 BRG1-KD BTICs producing larger tumors, the tumors were sensitized to TMZ therapy.
In contrast, all mice with single drug treatment had to be euthanized because the tumors had reached […] by 3 weeks post-treatment.

GBM cells [3] = assay: overall statements on GBM cell death and sensitization to TMZ; format: cell-based; details: for sensitizing activity to TMZ compared to PFI-3: in vitro and in an animal model of GBM; for GBM cell death: used alone
Text: The syntheses of two exemplary PA BRIs, referred to herein as YH-IV-073 (or IV-073), and YH-IV-077 (or IV-077), as well as of PFI-3 (also referred to herein as YH-IV-081), are shown in Scheme 2, below. As shown in Scheme 2, commercially available tert-butyloxycarbonyl (BOC)-protected amine 1 is contacted with 2-bromopyridine (2) to form intermediate 3. The protecting group can be removed (e.g., via hydrolysis) to give the corresponding amine 4. Compound 4 can be coupled with a carboxylic acid (5, 6, or 7) to afford target YH-IV-073, YH-IV-077 and YH-IV-081, respectively. […] These analogs will provide greater insight into the importance of substitution of the A ring.
The synthetic route shown in Scheme 3, below, was used to synthesize new analogs with different substituents in the 2-position of the A-ring, such as YH-IV-085. As shown in Scheme 3, a commercially available 1-phenylprop-2-yn-1-one (e.g., 8 or 9) can be reacted with BOC-protected amine compound 1 to afford a BOC-protected intermediate (e.g., 10 or 11), which can be hydrolyzed to provide corresponding deprotected intermediate (12 or 13). The intermediates can be coupled with the 2-bromopyridine (2) to yield target compounds (e.g., 14 or YH-IV-085), respectively. YH-IV-085 is believed to be the first PFI-3 analog prepared without a 2-hydroxy moiety in the A-ring.

GBM cells [4] = assay: survival of mice after intracranial injection of GBM cells; format: in vivo; details: combination with TMZ, intraperitoneal, 10 mg/kg body weight
Procedure: FIG. 6 is a graph showing the survival curves (percent survival versus days after treatment) of mice after intracranial injection of glioblastoma (GBM) cells and intraperitoneal injection of temozolomide (TMZ) or combinations of TMZ and a Brahma-related gene-1 bromodomain inhibitors (BRIs): PFI-3 or one of the presently disclosed PFI-3 analogs (PAs) IV-073 or IV-085. Five mice per group were treated with TMZ with or without the BRI (10 milligrams per kilogram (mg/kg) body weight.
TMZ with or without a BRI was also tested in mice after intercranial injection of GBM cells.

T2 sequence (P51532 1453-1564 limits assumed): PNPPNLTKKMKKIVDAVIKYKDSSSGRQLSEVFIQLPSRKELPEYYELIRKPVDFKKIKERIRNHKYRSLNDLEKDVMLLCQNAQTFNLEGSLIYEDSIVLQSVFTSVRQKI
T1 sequence (P51532 1453-1564 limits assumed): as above

O=NN(CCCl)C(=O)NCCCl [Carmustine]
Carmustine sensitivity (X16 BTICs): highly resistant
Carmustine sensitivity (X10 BTICs): highly resistant

O=C(/C=C/N1C[C@H]2C[C@@H]1CN2c1ccccn1)c1cc(F)ccc1O [IV-073, (E)-1-(5-fluoro-2-hydroxyphenyl)-3-((1R,4R)-5-(pyridin-2-yl)-2,5-diazabicyclo[2.2.1]heptan-2-yl)prop-2-en-1-one]
sensitization to TMZ [1]: potently sensitized
effect on cell growth [1]: relatively minor effects on cell growth
stabilization of the BRG1 bromodomain (bromodomain of BRG1): more effective in stabilizing the bromodomain
displacement of the BRG1 bromodomain from the nucleus [2]: more effective in displacing the bromodomain
tumor growth (X16 BTIC): marked effect on tumor growth
tumors after treatment for 8 weeks (X16 BTIC): only small tumors were detectable
sensitizing activity to TMZ compared to PFI-3 (GBM cells [3]; listed as YH-IV-073): significantly improved sensitizing activity; also recorded: better efficacy
GBM cell death (GBM cells [3]): do not cause GBM cell death

O=C(/C=C/N1C[C@H]2C[C@@H]1CN2c1ccccn1)c1ccc(Cl)cc1O [IV-077, (E)-1-(4-chloro-2-hydroxyphenyl)-3-((1R,4R)-5-(pyridin-2-yl)-2,5-diazabicyclo[2.2.1]heptan-2-yl)prop-2-en-1-one]
sensitization to TMZ [1]: potently sensitized
effect on cell growth [1]: relatively minor effects on cell growth
sensitizing activity to TMZ compared to PFI-3 (GBM cells [3]): significantly improved sensitizing activity
GBM cell death (GBM cells [3]): do not cause GBM cell death

O=C(/C=C/N1C[C@H]2C[C@@H]1CN2c1ccccn1)c1ccccc1Cl [IV-085, (E)-1-(2-chlorophenyl)-3-((1R,4R)-5-(pyridin-2-yl)-2,5-diazabicyclo [2.2.1]heptan-2-yl) prop-2-en-1-one]
sensitization to TMZ [1]: potently sensitized
effect on cell growth [1]: relatively minor effects on cell growth
tumor growth (X16 BTIC): marked effect on tumor growth
tumors after treatment for 8 weeks (X16 BTIC): only small tumors were detectable
animal survival (GBM cells [4]): greatest effect
sensitizing activity to TMZ compared to PFI-3 (GBM cells [3]): significantly improved sensitizing activity
GBM cell death (GBM cells [3]): do not cause GBM cell death

Reference: patent US12329755B2, “Bromodomain inhibitors to target therapy-resistant cancer” (University of Tennessee Research Foundation, priority 2019, dated 2025)
